# Data as given in patent US20230128402A1 (The Trustees of Princeton University, priority 2020, published 2023).
# Where two headings read alike, the source gives them in different places.
# Columns and labels:
# HEK293T cells = experiment: LC-MS metabolite quantification in HEK293T cells; type: cell-based; conditions: 10 uM, 1 hour
# Method: HEK293T cells were grown to full confluence and media was exchanged with complete DMEM media supplemented with 10% dialyzed fetal bovine serum. Three replicate plates per group were treated with 10 uM MBE1.5 or control DMSO for 1 hour followed by organic extraction with 40:40:20 methanol:acetonitrile:water w/0.5% formic acid (ice cold). Plates were immediately transferred to ice and incubated for 5 minutes then 50 ul 15% NH4HCO3 was added. Cells lysates were scraped and centrifuged at 15000 RCF. Supernatants were then analyzed via LC-MS to quantify various metabolites using standard metabolomic protocols.
# ALDH1a3 [1] = biological target: T1, ALDH1a3 (Mus musculus, UniProt Q9JHW9); experiment: ALDEFLUOR assay on pancreatic cells from diabetic and lean mice; type: cell-based; conditions: 10 μM; diabetic vs healthy mice
# T1 construct: from tissue; host or cells: pancreatic cells from C57/BL6 mice (diet-induced diabetic and lean)
# T1 sequence (Q9JHW9 1-512): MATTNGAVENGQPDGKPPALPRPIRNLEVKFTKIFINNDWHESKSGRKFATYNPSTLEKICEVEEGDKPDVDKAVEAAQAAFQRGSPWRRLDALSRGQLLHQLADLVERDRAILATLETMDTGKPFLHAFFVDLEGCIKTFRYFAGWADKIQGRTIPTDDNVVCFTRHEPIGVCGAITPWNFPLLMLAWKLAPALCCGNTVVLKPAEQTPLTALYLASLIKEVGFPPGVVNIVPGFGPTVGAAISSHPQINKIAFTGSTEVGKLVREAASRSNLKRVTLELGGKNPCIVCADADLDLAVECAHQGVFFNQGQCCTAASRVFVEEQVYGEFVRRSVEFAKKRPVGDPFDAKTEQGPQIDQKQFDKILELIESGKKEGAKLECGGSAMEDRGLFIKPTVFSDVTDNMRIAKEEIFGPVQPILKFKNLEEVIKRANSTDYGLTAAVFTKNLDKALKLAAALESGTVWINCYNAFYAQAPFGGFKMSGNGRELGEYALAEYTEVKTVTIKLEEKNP
# Method: In the ALDEFLUOR™ assay used in this example, 14 month-old C57/BL6 high fat diet-induced severe obese/diabetic mice and 3 month-old lean C57/B16 mice were euthanized and pancreatic cells were extracted with 1 mg/mL Collagenase 1 digestion in PBS for 1 hour at 37 C. Single cell suspensions were obtained by filtration through 40 μm cell sieves. Cells were washed by two sequential centrifugations and resuspension in PBS.
# (§1) Cells were counted, centrifuged and resuspended at 1,000,000 cells/mL in ALDEFLUOR™ buffer (Stemcell Technologies). ALDEFLUOR™ substrate (Stemcell Technologies, 1:200) and test compound (MBE 1.5 at 10 μM or 1 mM DEAB were added to cell suspension and incubated at 37° C. for 45 minutes with vortexing every 15 minutes. Cells were centrifuged and resuspended in ALDEFLUOR™ buffer with DAPI at 5 μg/mL. Samples were analyzed with the BD LSR2 flow cytometry platform.
# (§2) Gating for background fluorescence was performed using 1 millimolar DEAB as a negative control.
# MDA-MB-468 cells = experiment: MDA-MB-468 mammary fat pad primary tumor xenograft; type: in vivo, mouse; conditions: 25 mg/kg daily, 12 days
# Method: In yet another xenograft experiment, mice were injected with MDA-MB-468 cells via mammary fat pad, and were randomized following injection. […] Primary tumor measurements were taken by caliper between each treatment group.
# HCT116 cells = experiment: HCT116 left ventricle injection metastasis xenograft; type: in vivo, mouse; conditions: 50 mg/kg subcutaneously every day, paclitaxel 25 mg/kg every three days
# Method: In another xenograft experiment, mice were injected HCT116 cells via left ventricle injection and monitored with BLI on a weekly basis during the experiment. MBE1.5 or vehicle control were injected subcutaneously every day following injection at 50 mg/kg. At day 7 following injection, paclitaxel was dosed at 25 mg/kg every three days for a total of 6 injections. N=10 mice per group.
# SUM 159-M1-p44 cells = experiment: SUM 159-M1-p44 tail-vein lung metastasis xenograft; type: in vivo, mouse; conditions: 50 mg/kg with 25 mg/kg paclitaxel on days 17, 19 and 21
# Method: In another xenograft experiment, mice were injected with SUM 159-M1-p44 cells via tail-vein injection, as described above, and randomized following injection. Metastatic burden was imaged on day 16 via intravital imaging. Mice were then treated with paclitaxel (25 mg/kg) and either vehicle or MBE1.5 (50 mg/kg) on days 17, 19 and 21. Lung metastatic burden was then imaged on day 22. Signals were normalized to day 16.
# [2] = system: Sum-159-M1a-Aldh 1a3 cells; experiment: Sum-159-M1a-Aldh1a3 tail-vein lung metastasis xenograft; type: in vivo, mouse; conditions: 25 mg/kg daily, 12 days, with paclitaxel 12.5 mg/kg every other day
# Method: In another xenograft experiment, mice were injected with Sum-159-M1a-Aldh 1a3 cells via tail-vein injection, and were randomized following injection. Mice were treated with MBE1.5 (25 mg/kg daily) or vehicle, and paclitaxel (12.5 mg/kg every other day) for twelve days. Lung metastasis progression was tracked by intravital bioluminescence.
# in vivo = conditions: male, CD-1/C57BL/6, mouse
# ALDH1a3 [3] = biological target: T2, ALDH1a3 (Homo sapiens, UniProt P47895); experiment: ALDEFLUOR assay in SUM159-M1a-Aldh1a3 cells; type: cell-based; set-up: lentiviral vectors containing either the vector backbone or full-length human Aldh1a3; expressed in transfected cells; host or cells: SUM159-M1a human breast cancer cells, lentiviral pLex vector; conditions: for inhibition of ALDH1a3 activity (percentage of ALDEFLUOR-positive cells): 100 nM, FIG. 6A; for inhibitory activity detected at concentrations as low as: SUM 159-M1a-Aldh1a3 cells, FIG. 6B
# T2 sequence (P47895 1-512): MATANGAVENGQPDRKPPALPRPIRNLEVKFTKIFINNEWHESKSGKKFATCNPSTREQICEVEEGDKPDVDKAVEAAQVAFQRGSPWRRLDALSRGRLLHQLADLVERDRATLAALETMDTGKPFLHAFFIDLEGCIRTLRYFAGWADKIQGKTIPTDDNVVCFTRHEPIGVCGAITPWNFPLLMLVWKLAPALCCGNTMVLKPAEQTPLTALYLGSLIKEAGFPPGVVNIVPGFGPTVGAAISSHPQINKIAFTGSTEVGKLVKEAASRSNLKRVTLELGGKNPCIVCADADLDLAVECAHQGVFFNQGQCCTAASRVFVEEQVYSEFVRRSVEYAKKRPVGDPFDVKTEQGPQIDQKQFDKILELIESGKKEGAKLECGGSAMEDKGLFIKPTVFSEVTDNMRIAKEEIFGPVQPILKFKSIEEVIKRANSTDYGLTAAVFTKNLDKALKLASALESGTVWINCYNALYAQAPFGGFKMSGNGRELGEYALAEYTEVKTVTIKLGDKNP
# Method: as §1, with “compound” for “compound (MBE 1.5 at 10 μM”, “platform. Gating was performed using DEAB as a negative control.” for “platform.”
# as §2
# The [inh-min]threshold was set at the lower bound of two standard deviations of control samples, while the IC50 threshold was set at 50% of the average of control samples.
# An ALDEFLUOR™ assay was also used to assess the relative activity of several compounds described herein against SUM159-M1a-Aldh1a3 cells.
# [4] = male, CD-1/C57BL/6, mouse, in vivo
# SUM 159-M1a cells [5] = experiment: SUM 159-M1a xenograft metastasis, tail vein or intracardiac injection; type: in vivo, mouse; conditions: IP in conjunction with paclitaxel; FIGS. 9B and 10B
# Method: All xenograft experiments were conducted on 8-week old female mice (athymic Nu/Nu, or NOD/SCID Gamma). Xenograft experiments were conducted using 125,000 SUM 159-M1a cells in 100 μL PBS for tail vein or intracardiac injection. Mice were randomized following injection. Bioluminescent imaging (BLI) was conducted using the IVIS 200 system and retroorbital luciferin injection. For drug treatment, MBE1 was given to mice via IP injection in conjunction with paclitaxel (5 mg/mL in 10% ethanol, 10% Kolliphor EL, 80% PBS) at the time intervals and dosages indicated in FIG. 9A (tail vein injection) and FIG. 10A (intracardiac injection).
# [6] = Pharmacokinetic profiling in mice
# SUM 159-M1a cells [7] = conditions: shown in PCT/US2019/044278; cited from earlier work
# [8] = Toxicity experiments in C57Bl6 mice; type: in vivo, mouse; conditions: IP, ascending 12.5 to 200 mg/kg at 24h intervals; 25 mg/kg every 3 days for 18 days
# Method: All mice were originally ordered from the Jackson Laboratory (Bar Harbor, Me.) and breeding was conducted in a specific pathogen-free (SPF) barrier facility. Toxicity experiments were performed on 8-12-week old male and female C57Bl6 mice. MBE1 was dissolved at 50 mg/mL in DMSO followed by a […] into Kolliphor EL, followed by a 1:5 dilution into PBS to yield a 5 mg/ml MBE1 solution, (10% DMSO, 10% Kolliphor EL, 80% PBS). This was administered via IP injection at ascending doses from 12.5 to 200 mg/kg body mass in a set of 3 mice at 24h intervals. Body condition score, food uptake, fecal/urine production, behavior and body weight were measured as toxicity readouts. Five mice were then treated every 3 days with 25 mg/kg MBE1 for 18 days.
# [9] = Fast and refeed insulin secretion in db/db mice; type: in vivo, mouse; conditions: 40 mg per kg oral gavage once per day, 14 days
# Method: C57/Bl6 mice homozygous for the spontaneous mutation (Lepr^db, referred to as db/db) that develop severe obesity and Type 2 Diabetes within 12 weeks were raised through standard husbandry practice and we separated into two groups followed by acclimatization for 9 days in single housing.
# Daily food intake and body mass were monitored each day and baseline levels of plasma insulin and glucose were monitored to confirm identical group characteristics.
# Compound MBE1 was dissolved to 200 mg/mL in DMSO followed by suspension into a 0.5% methycellulose, 0.5% Tween-80 solution. Mice were treated via oral gavage once per day to achieve 40 mg per kg body mass MBE1 or were treated with vehicle control. Mouse body mass and food consumption were monitored daily over 14 days.
# At Day 14, food was removed from mouse cages for 16 hours, and then food was reintroduced. Plasma insulin levels were assayed by ELISA at baseline and at 1 hour, 2 hour and 4 hours following provision of chow and ad libitum feeding.
# [10] = with paclitaxel 12.5 mg/kg every other day
# [11] = SUM159-M1a-Aldh1a3 cells, compound at 100 nM
compound,measurement,setting,value
"CCc1ccccc1C(=O)Nc1cc2c(cc1F)NC(=O)CC2 [Compound 4, 2-ethyl-N-(7-fluoro-2-oxo-3,4-dihydro-1H-quinolin-6-yl)benzamide]",NADH (LC-MS),HEK293T cells,depletion of NADH
same,adipate semialdehyde (LC-MS),HEK293T cells,increases in adipate semialdehyde
same,percentage of ALDEFLUOR-positive pancreatic islet cells,ALDH1a3 [1],high-affinity compound for the inhibition of ALDH1a3 activity
same,tumors completely eliminated,"MDA-MB-468 cells; n=6, with paclitaxel",tumors of two mice in the MBE1.5 treatment group were completely eliminated
same,gross toxicity (body mass),MDA-MB-468 cells; [10],no gross toxicity
same,primary tumor volume,MDA-MB-468 cells; [10],caused regression of primary breast tumors
same,colorectal cancer metastasis (BLI),HCT116 cells,slows colorectal cancer metastasis
same,lung metastatic burden (BLI),SUM 159-M1-p44 cells,caused regression of established metastatic disease
same,survival,[2],extended survival in mice with late-stage established breast cancer lung metastasis
same,bioavailability,in vivo,62.5%
same,half-life,"in vivo; iv, 1 mg/kg",1.22 h
same,half-life,"in vivo; po, 10 mg/kg",1.7 h
same,inhibition of ALDH1a3 activity (percentage of ALDEFLUOR-positive cells),ALDH1a3 [3],high-affinity compounds for the inhibition of ALDH1a3 activity
same,inhibitory activity detected at concentrations as low as,ALDH1a3 [3],2 nM
same,time plasma concentrations exceed 5-fold the IC50,[4],> 10 h
"CCc1cnccc1C(=O)Nc1cc2c(cc1F)NC(=O)CC2 [Compound 1, 3-ethyl-N-(7-fluoro-2-oxo-3,4-dihydro-1H-quinolin-6-yl)pyridine-4-carboxamide]",lung and bone metastasis (BLI),SUM 159-M1a cells [5],effective therapeutic to treat established metastatic disease
same,"cage side observations, adverse reactions","[6]; 10 mg/kg oral gavage or 1 mg/kg intravenous, 0 hours to 24 hours post-dosing",no adverse reactions
same,half-life,"[6]; male, CD-1/C57BL/6, mouse, plasma, iv, 1 mg/kg",1.79 h
same,bioavailability,"[6]; male, CD-1/C57BL/6, mouse, plasma, oral, 10 mg/kg",88%
same,half-life,"[6]; male, CD-1/C57BL/6, mouse, plasma, po, 10 mg/kg",1.37 h
same,time plasma concentrations exceed 5-fold the IC50,"[6]; mice, oral gavage (PO) and intravenous (IV)",> 10 h
same,metastatic lesions in mice,SUM 159-M1a cells [7],shrink metastatic lesions in mice without toxicity
same,acute or chronic toxicity,[8],Neither experiment showed any indication of either acute or chronic toxicity
same,inhibition of ALDH1a3 activity (percentage of ALDEFLUOR-positive cells),ALDH1a3 [3],high-affinity compounds for the inhibition of ALDH1a3 activity
same,inhibitory activity detected at concentrations as low as,ALDH1a3 [3],2 nM
same,Inhi-bitory Activity at 100 nM (%),ALDH1a3 [3]; [11],99%
same,Percent of Cells Positive for ALDEFLUOR ™ at 100 nM,ALDH1a3 [3]; [11],0.73%
same,plasma insulin after fast and refeed challenge (ELISA),[9],effectively improve insulin secretion
